Measurements: ChEMBL document CHEMBL4725222, “Advances in the Development of Phosphodiesterase-4 Inhibitors” (J Med Chem, 2020)
Values belong to the molecule of their own block, whether it stands above or below them.

Assays:
Phosphodiesterase 4 [1] = target: T1, Phosphodiesterase 4 (Homo sapiens, UniProt P27815+Q08499+Q07343+Q08493); assay: Inhibition of PDE4 (unknown origin) expressed in Saccharomyces cerevisiae using [3H] cAMP as substrate incubated for 1 hr by scintillation proximity assay
Phosphodiesterase 4 [2] = target: T1, Phosphodiesterase 4; assay: Inhibition of PDE4 (unknown origin); type: protein assay
[3] = Inhibition of PDE4B2B (152 to 528 residues) (unknown origin) by liquid scintillation counting method; parameters: species or system Homo sapiens
[4] = Inhibition of bovine aorta cytosolic PDE4 using cyclic AMP as substrate by liquid scintillation counting; parameters: species or system Bos taurus
[5] = target: T2, 3',5'-cyclic-AMP phosphodiesterase 4B (Homo sapiens, UniProt Q07343); assay: Inhibition of N-terminal GST tagged full length human PDE4B2 expressed in baculovirus infected Sf9 cell expression system using cAMP as substrate incubated for 60 mins by time-resolved fluorescence competitive immunoassay
T2 sequence (Q07343 whole entry): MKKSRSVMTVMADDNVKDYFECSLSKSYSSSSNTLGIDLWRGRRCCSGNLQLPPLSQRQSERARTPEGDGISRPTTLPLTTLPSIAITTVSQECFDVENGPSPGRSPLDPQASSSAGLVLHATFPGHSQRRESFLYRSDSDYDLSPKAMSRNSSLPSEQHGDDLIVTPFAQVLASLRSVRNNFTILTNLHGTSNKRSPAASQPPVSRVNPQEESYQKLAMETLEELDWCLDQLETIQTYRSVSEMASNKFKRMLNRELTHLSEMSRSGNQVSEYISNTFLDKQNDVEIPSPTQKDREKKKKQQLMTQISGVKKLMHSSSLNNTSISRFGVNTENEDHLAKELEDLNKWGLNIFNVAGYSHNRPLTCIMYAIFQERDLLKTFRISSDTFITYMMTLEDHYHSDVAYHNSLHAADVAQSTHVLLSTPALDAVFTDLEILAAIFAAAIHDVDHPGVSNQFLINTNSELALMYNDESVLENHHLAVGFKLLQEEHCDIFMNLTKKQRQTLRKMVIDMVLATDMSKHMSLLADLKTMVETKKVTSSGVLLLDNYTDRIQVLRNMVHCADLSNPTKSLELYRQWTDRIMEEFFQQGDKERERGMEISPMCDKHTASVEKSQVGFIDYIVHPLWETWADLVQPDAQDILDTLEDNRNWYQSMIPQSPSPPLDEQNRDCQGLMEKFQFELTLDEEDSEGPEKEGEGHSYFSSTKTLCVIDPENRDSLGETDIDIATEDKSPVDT

[6] = target: 3',5'-cyclic-AMP phosphodiesterase 4C (Homo sapiens, UniProt Q08493); assay: Inhibition of N-terminal GST tagged full length human PDE4C1 expressed in baculovirus infected Sf9 cell expression system using cAMP as substrate incubated for 60 mins by time-resolved fluorescence competitive immunoassay
Chain of 3',5'-cyclic-AMP phosphodiesterase 4C (Q08493 whole entry): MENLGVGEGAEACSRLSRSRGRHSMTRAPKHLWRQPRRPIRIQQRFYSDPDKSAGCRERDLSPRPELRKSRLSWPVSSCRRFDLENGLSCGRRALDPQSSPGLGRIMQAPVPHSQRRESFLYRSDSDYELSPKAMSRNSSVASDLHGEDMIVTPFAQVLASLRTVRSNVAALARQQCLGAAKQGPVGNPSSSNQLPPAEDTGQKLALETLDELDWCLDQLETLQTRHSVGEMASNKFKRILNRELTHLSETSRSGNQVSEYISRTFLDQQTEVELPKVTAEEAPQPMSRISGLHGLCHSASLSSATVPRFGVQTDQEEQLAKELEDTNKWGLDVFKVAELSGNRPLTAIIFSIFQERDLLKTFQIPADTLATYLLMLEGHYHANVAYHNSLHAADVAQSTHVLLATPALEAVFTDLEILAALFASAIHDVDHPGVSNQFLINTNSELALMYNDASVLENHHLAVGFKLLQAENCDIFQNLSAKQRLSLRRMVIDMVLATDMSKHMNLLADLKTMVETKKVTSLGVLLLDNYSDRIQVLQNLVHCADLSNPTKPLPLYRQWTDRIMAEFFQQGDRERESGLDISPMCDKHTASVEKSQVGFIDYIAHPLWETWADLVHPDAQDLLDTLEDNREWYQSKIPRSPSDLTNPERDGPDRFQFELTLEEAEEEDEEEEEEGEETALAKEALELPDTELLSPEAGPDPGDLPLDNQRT

[7] = target: 3',5'-cyclic-AMP phosphodiesterase 4D (Homo sapiens, UniProt Q08499); assay: Inhibition of PDE4D (unknown origin)
Chain of 3',5'-cyclic-AMP phosphodiesterase 4D (Q08499 whole entry): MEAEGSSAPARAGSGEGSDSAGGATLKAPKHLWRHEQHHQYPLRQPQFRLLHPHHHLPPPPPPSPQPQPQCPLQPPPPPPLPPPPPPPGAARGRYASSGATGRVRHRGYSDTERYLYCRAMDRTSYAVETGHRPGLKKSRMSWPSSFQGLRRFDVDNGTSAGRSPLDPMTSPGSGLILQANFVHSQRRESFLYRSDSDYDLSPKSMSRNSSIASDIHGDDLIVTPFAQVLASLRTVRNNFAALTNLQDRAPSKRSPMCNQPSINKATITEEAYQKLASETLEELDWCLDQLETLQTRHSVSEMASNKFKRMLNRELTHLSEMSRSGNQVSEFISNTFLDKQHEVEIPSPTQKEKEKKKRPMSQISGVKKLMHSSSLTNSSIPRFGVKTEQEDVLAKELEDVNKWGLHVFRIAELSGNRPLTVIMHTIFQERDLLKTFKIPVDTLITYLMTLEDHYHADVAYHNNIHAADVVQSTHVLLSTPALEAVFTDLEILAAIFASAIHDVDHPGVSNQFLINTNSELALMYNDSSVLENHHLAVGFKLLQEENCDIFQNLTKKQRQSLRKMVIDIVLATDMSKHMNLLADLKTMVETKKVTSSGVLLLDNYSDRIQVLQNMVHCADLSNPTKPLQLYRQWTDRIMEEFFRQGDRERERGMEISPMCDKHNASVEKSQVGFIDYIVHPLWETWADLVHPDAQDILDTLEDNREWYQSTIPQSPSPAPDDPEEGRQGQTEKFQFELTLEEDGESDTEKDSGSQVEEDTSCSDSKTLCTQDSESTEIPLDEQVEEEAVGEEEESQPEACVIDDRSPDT

[8] = target: T2, 3',5'-cyclic-AMP phosphodiesterase 4B; assay: Inhibition of recombinant N-terminal GST-tagged full length human PDE4B1 expressed in baculovirus infected Sf9 cells […] as substrate by HPLC-MS method
Phosphodiesterase 4 [9] = target: T1, Phosphodiesterase 4; assay: Inhibition of human U-937 cell derived PDE4 using [3H]-cAMP or [3H]-cGMP as substrate incubated for 60 mins by scintillation proximity assay; type: protein assay
[10] = target: T2, 3',5'-cyclic-AMP phosphodiesterase 4B; assay: Inhibition of recombinant human PDE4B2 preincubated for 30 mins followed by [3H]cyclic AMP addition and measured after 20 mins by radiometric assay
[11] = Inhibition of TNFalpha in mouse model of sepsis; type: functional
[12] = target: T2, 3',5'-cyclic-AMP phosphodiesterase 4B; assay: Inhibition of recombinant human PDE4B2 using cAMP as substrate preincubated for 15 mins followed by substrate addition and measured after 60 mins by Alphascreen assay
Phosphodiesterase 4 [13] = target: T1, Phosphodiesterase 4; assay: Inhibition of human neutrophil derived PDE4; type: protein assay
[14] = Inhibition of human platelet derived PDE3
Phosphodiesterase 4 [15] = target: T1, Phosphodiesterase 4; assay: Inhibition of PDE4 in human U937 cell lysate using cAMP as substrate by LANCE assay; type: subcellular; conditions: u-937
[16] = target: Mitogen-activated protein kinase 14 (Homo sapiens, UniProt Q16539); assay: Inhibition of P38 alpha MAPK (unknown origin)
Chain of Mitogen-activated protein kinase 14 (Q16539 whole entry): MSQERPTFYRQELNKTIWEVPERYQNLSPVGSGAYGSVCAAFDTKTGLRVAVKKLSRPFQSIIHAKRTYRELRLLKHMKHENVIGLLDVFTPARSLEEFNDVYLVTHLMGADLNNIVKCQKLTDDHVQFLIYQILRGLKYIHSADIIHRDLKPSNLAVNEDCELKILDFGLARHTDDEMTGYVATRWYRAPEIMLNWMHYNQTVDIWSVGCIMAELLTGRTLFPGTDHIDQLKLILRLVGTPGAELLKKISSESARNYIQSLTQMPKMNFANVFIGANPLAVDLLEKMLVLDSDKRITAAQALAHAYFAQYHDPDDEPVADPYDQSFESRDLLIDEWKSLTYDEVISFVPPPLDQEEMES

[17] = target: T2, 3',5'-cyclic-AMP phosphodiesterase 4B; assay: Inhibition of PDE4B (unknown origin)
[18] = target: Mitogen-activated protein kinase 10 (Homo sapiens, UniProt P53779); assay: Inhibition of JNK3 (unknown origin)
Chain of Mitogen-activated protein kinase 10 (P53779 whole entry): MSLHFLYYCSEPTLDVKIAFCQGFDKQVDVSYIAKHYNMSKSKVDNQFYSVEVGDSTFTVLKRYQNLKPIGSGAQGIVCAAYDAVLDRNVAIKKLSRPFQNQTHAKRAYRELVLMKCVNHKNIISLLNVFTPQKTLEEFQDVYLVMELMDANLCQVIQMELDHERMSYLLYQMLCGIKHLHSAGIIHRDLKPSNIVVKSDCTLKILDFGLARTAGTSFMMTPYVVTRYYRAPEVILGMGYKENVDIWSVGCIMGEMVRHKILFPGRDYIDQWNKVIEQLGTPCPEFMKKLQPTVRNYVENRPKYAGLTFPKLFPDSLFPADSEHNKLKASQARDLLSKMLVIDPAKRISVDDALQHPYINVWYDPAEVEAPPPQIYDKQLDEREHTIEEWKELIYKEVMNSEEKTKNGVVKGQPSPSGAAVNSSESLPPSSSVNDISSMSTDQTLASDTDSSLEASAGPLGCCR

Phosphodiesterase 4 [19] = target: T1, Phosphodiesterase 4; assay: Inhibition of human U937 cell derived PDE4 using [3H]cAMP as substrate incubated for 60 mins by Scintillation proximity assay; type: protein assay
[20] = Inhibition of recombinant human His-tagged PDE7 expressed in baculovirus infected in sf9 cells incubated for 60 mins by Scintillation counting method

IC50 (Phosphodiesterase 4 [1]): 0.05 nM
Compound: CCNC(=O)c1cc(C(=O)NCCCN(C)C)cc(-c2cc(NC(=O)Nc3c(Cl)cncc3Cl)c(=O)n(CC)n2)c1

IC50 [3]: 20 nM
Compound: CC(C)CC(=O)c1ccc(OC(F)F)c(OC2CCOC2)c1 (stereo unspecified)

IC50 [5]: 3 nM | IC50 [6]: 3 nM
Compound: CCOc1cc([C@H](CS(C)(=O)=O)N2C(=O)c3cccc(NC(=O)OCCOCCOCCOCCOCCOCCOCCOC)c3C2=O)ccc1OC

IC50 (Phosphodiesterase 4 [2]): 0.2 nM
Compound: COc1ccc(C(Cc2c(Cl)cncc2Cl)OC(=O)c2ccc(OC(F)F)c(OCC3CC3)c2)cc1OC (stereo unspecified)

IC50 [5]: 3 nM | IC50 [6]: 3 nM
Compound: CCOc1cc([C@H](CS(C)(=O)=O)N2C(=O)c3cccc(NC(=O)OCCOCCOCCOCCOCCOC)c3C2=O)ccc1OC

IC50 [5]: 3 nM | IC50 [6]: 3 nM
Compound: CCOc1cc([C@H](CS(C)(=O)=O)N2C(=O)c3cccc(NC(=O)OCCOCCOCCOCCOCCOCCOCCOCCOC)c3C2=O)ccc1OC

IC50 [5]: 3 nM | IC50 [6]: 3 nM
Compound: CCOc1cc([C@H](CS(C)(=O)=O)N2C(=O)c3cccc(NC(=O)OCCOCCOCCOC)c3C2=O)ccc1OC

EC50 [11]: 0.01 mg/kg | IC50 (Phosphodiesterase 4 [2]): 7 nM
Compound: NS(=O)(=O)c1cccc(-c2c(-c3ccccc3)nc(C(F)(F)F)nc2N2CCOCC2)c1

pIC50 (Phosphodiesterase 4 [2]): 9.45
Compound: COc1ccc(C2=NN(C3CCN(S(=O)(=O)c4ccccc4C)CC3)C(=O)C(C)(C)C2)cc1OC

IC50 [16]: 500 nM | IC50 [17]: 200 nM | IC50 [18]: 700 nM
Compound: CC(=O)Nc1ccc(-c2c(-c3ccc(F)cc3)nc([S+](C)[O-])n2C)cn1 (stereo unspecified)

IC50 (Phosphodiesterase 4 [19]): 2900 nM | IC50 [20]: 1400 nM
Compound: CCOc1ccc(-c2c(C(C)(C)O)oc(=O)c3ccccc23)cc1OC1CCCC1

More lines, now with the values behind:

Compound: O=C(O/C(=C\c1c(Cl)cncc1Cl)c1ccc(OC(F)F)c(OCC2CC2)c1)c1ccc(OC(F)F)c(OCC2CC2)c1
IC50 (Phosphodiesterase 4 [2]): 0.9 nM

Compound: CCOc1cc2c(cc1OCC)C(c1ccc(CCCN3CCN(c4ccc(Cl)cc4)CC3)cc1)=NCC(=O)N2
IC50 [4]: 40 nM

Compound: CC1CN(C(=O)CO/N=C/c2ccc(OC(F)F)c(OC3CCCC3)c2)CC(C)O1 (stereo unspecified)
IC50 [7]: 800 nM

Compound: CCOc1cc(C(CS(C)(=O)=O)N2C(=O)c3csc(NC(C)=O)c3C2=O)ccc1OC (stereo unspecified)
IC50 [8]: 26 nM

Compound: CNc1nc(-c2cccc(NC(=O)c3ccc(C(=O)OC)cc3)c2)c2cc(OC)c(OC)cc2n1 [LOTAMILAST]
IC50 (Phosphodiesterase 4 [9]): 2.8 nM

Compound: O=C(N[C@H]1CC[C@@H](C2C(=O)c3cc(F)cnc3N(C3CCSCC3)C2=O)CC1)c1cn2cc(F)ccc2n1 (stereo partly specified)
IC50 [10]: 0.126 nM

Compound: COc1ccc(-c2nc(C(=O)NCc3coc4ccccc34)c([C@@H](C)N)o2)c2ccc(C(F)(F)F)nc12
IC50 [12]: 0.01 nM

Compound: O=C(Nc1c(Cl)c[n+]([O-])cc1Cl)c1ccc(OC(F)F)c2oc3ccncc3c12
IC50 (Phosphodiesterase 4 [2]): 3 nM

Compound: CCOc1cc2c(cc1OC)C(c1ccc(C(=O)N(C(C)C)C(C)C)cc1)=N[C@@H]1CCN(C)C[C@H]21 [PUMAFENTRINE]
IC50 (Phosphodiesterase 4 [13]): 7 nM | IC50 [14]: 28 nM

Compound: CS(=O)(=O)Nc1ccc(C(=O)O[C@@H](Cc2c(Cl)c[n+]([O-])cc2Cl)c2ccc(OC(F)F)c(OCC3CC3)c2)cc1OCC1CC1
IC50 (Phosphodiesterase 4 [15]): 0.026 nM

Compound: O=C(Nc1c(Cl)cncc1Cl)C(=O)c1cn(Cc2ccc(F)cc2)c2ncccc12 [ELBIMILAST]
IC50 (Phosphodiesterase 4 [2]): 3 nM
